In patent US20140187548A1, “6 SUBSTITUTED IMIDAZOPYRAZINES FOR USE AS MPS-1 AND TKK INHIBITORS IN THE TREATMENT OF HYPERPROLIFERATIVE DISORDERS” (BAYER INTELLECTUAL PROPERTY GMBH, priority 2010, published 2014):

Target: T1, human kinase Mps-1 (Homo sapiens, UniProt P33981)
T1 construct: N-terminally GST-tagged human full length recombinant Mps-1 kinase; GST (N); purchased Invitrogen, Karslruhe, Germany PV4071
T1 sequence (P33981 1-857): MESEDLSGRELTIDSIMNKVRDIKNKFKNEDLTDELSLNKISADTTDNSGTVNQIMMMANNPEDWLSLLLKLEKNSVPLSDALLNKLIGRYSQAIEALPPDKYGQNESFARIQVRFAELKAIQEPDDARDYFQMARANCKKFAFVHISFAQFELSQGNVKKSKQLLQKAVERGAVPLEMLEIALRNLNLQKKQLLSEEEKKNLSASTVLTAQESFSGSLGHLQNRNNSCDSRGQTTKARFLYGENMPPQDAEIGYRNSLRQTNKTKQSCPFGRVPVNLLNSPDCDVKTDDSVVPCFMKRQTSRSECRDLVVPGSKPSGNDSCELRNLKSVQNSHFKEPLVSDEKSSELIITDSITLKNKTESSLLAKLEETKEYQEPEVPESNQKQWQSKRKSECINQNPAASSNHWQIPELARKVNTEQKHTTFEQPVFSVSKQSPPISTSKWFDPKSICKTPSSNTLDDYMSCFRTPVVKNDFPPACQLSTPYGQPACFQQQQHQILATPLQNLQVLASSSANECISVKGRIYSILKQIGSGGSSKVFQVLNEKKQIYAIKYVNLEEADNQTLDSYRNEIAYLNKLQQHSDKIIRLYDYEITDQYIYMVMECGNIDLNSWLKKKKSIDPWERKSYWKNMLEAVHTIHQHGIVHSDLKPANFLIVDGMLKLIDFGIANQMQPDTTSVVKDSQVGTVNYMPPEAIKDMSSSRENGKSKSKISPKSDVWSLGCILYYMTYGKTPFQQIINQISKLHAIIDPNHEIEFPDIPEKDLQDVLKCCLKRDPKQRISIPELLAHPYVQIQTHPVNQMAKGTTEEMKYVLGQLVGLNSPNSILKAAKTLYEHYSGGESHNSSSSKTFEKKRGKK
Experiment: Mps-1 kinase assay (TR-FRET)
Format: biochemical
Conditions: N-terminally GST-tagged human full length recombinant Mps-1; 10 μM ATP; 1 μM peptide substrate; 15 min pre-incubation; 60 min at 22° C.
In short: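 N-terminally GST-tagged full-length recombinant human Mps-1, about 1 nM final, phosphorylates a biotinylated peptide. Product detected by TR-FRET from Eu-anti-phospho-Ser/Thr antibody to streptavidin-XLent after 1 h at 22° C.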

IC50 [nM] | SMILES
7.1 | CC(C)CNc1nc(C(C)C)cn2c(-c3ccc(C(=O)NC4CC4)cc3)cnc12 [Example 11-2, N-cyclopropyl-4-{8-[(2-methylpropyl)amino]-6-(propan-2-yl)imidazo[1,2-a]pyrazin-3-yl} benzamide]
5.4 | CCCc1cn2c(-c3ccc(C(=O)NC4CC4)cc3)cnc2c(NCC(C)C)n1 [Example 11-3, N-cyclopropyl-4-{8-[(2-methylpropyl)amino]-6-propylimidazo [1,2-a]pyrazin-3-yl}benzamide]
